Patent US9073855B2, “BCL-2 selective apoptosis-inducing agents for the treatment of cancer and immune diseases” (AbbVie Inc., priority 2008, dated 2015)

How the values were obtained:
[1] = molecular target: GST-Bcl-2 (Homo sapiens, UniProt P10415); test: TR-FRET binding assay, GST-Bcl-2 with F-Bak peptide probe; conditions: TR-FRET Binding Affinity, GST-Bcl-2, F-Bak peptide probe
Method in brief: (§1)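 Displacement of a fluorescein-labelled Bak peptide from the GST-tagged protein was followed by time-resolved FRET with a terbium anti-GST donor after 3 h incubation at room temperature. Inhibition constants were calculated with Wang's equation.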

[2] = molecular target: GST-Bcl-XL (Homo sapiens, UniProt Q07817); test: TR-FRET binding assay, GST-Bcl-XL with F-Bak peptide probe; conditions: TR-FRET Binding Affinity, GST-Bcl-XL, F-Bak peptide probe
Sequence of GST-Bcl-XL (Q07817 whole entry): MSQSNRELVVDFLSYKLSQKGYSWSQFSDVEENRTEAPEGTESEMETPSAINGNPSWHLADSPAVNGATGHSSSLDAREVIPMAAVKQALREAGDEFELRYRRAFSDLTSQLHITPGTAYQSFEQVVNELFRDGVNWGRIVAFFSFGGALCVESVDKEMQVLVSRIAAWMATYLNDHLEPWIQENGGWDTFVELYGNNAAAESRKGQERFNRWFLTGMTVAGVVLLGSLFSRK
Method in brief: as §1

[3] = system: FL5.12/Bcl-2 cells; test: FL5.12/Bcl-2 cell viability assay under IL-3 withdrawal (CellTitre Glo); assay type: cell-based, murine; conditions: Mus musculus, IL-3 withdrawn 48 hrs, then 24 hrs with compound
Method in brief: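 Cells (1×10^6/ml) are washed, resuspended in medium lacking WEHI-3B conditioned medium as IL-3 source, and held 48 hrs. Compounds are then added at a range of concentrations for 24 hrs, after which CellTitre Glo reports viability.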

Sequence of GST-Bcl-2 (P10415 whole entry): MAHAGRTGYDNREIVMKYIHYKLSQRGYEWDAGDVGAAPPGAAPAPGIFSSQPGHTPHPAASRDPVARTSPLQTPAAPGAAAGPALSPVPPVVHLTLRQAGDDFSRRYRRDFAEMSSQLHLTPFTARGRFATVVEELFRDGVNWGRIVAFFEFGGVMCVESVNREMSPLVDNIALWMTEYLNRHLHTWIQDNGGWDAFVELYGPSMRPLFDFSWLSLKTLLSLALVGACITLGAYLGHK

Row | Structure (SMILES) | Ki [1] [nM] | Ki [2] [nM] | EC50 [3] [nM]
1 | CC1(C)CCC(CN2CCN(c3ccc(C(=O)NS(=O)(=O)c4ccc(NCCN5CCOCC5)c(S(=O)(=O)C(F)(F)F)c4)c(Oc4ccc5[nH]ccc5c4)c3)CC2)=C(c2ccc(Cl)cc2)C1 [Example 351, 4-(4-{[2-(4-chlorophenyl)-4,4-dimethylcyclohex-1-en-1-yl]methyl}piperazin-1-yl)-2-(1H-indol-5-yloxy)-N-({4-[(2-morpholin-4-ylethyl)amino]-3-[(trifluoromethyl)sulfonyl]phenyl}sulfonyl)benzamide] | 1.58 | > 660 | 345
2 | CC1(C)CCC(CN2CCN(c3ccc(C(=O)NS(=O)(=O)c4cnc(NCC5CCOCC5)c(C#N)c4)c(Oc4ccc5[nH]ccc5c4)c3)CC2)=C(c2ccc(Cl)cc2)C1 [Example 352, 4-(4-{[2-(4-chlorophenyl)-4,4-dimethylcyclohex-1-en-1-yl]methyl}piperazin-1-yl)-N-({5-cyano-6-[(tetrahydro-2H-pyran-4-ylmethyl)amino]pyridin-3-yl}sulfonyl)-2-(1H-indol-5-yloxy)benzamide] | 6.82 | > 660 | 156
3 | CN1CCC(Oc2ccc(S(=O)(=O)NC(=O)c3ccc(N4CCN(CC5=C(c6ccc(Cl)cc6)CC(C)(C)CC5)CC4)cc3Oc3ccc4[nH]ccc4c3)cc2[N+](=O)[O-])CC1 [Example 353, 4-(4-{[2-(4-chlorophenyl)-4,4-dimethylcyclohex-1-en-1-yl]methyl}piperazin-1-yl)-2-(1H-indol-5-yloxy)-N-({4-[(1-methylpiperidin-4-yl)oxy]-3-nitrophenyl}sulfonyl)benzamide] | 0.292 | > 660 | 58.3
4 | CN1CCC(COc2ccc(S(=O)(=O)NC(=O)c3ccc(N4CCN(CC5=C(c6ccc(Cl)cc6)CC(C)(C)CC5)CC4)cc3Oc3ccc4[nH]ccc4c3)cc2[N+](=O)[O-])CC1 [Example 354, 4-(4-{[2-(4-chlorophenyl)-4,4-dimethylcyclohex-1-en-1-yl]methyl}piperazin-1-yl)-2-(1H-indol-5-yloxy)-N-({4-[(1-methylpiperidin-4-yl)methoxy]-3-nitrophenyl}sulfonyl)benzamide] | 0.036 | 5.41 | 5.6
5 | O=C(NS(=O)(=O)c1ccc(NCC2CCOCC2)c([N+](=O)[O-])c1)c1ccc(N2CCN(CC3=C(c4ccc(Cl)cc4)CCN(CCCO)C3)CC2)cc1Oc1cccc2[nH]ccc12 [Example 355, 4-(4-{[4-(4-chlorophenyl)-1-(3-hydroxypropyl)-1,2,5,6-tetrahydropyridin-3-yl]methyl}piperazin-1-yl)-2-(1H-indol-4-yloxy)-N-({3-nitro-4-[(tetrahydro-2H-pyran-4-ylmethyl)amino]phenyl}sulfonyl)benzamide] | 0.12 | > 660 | > 500
6 | CC1(C)CCC(CN2CCN(c3ccc(C(=O)NS(=O)(=O)c4ccc(NCC5CCN(C(=O)OCc6ccccc6)CC5)c([N+](=O)[O-])c4)c(Oc4ccc5[nH]ccc5c4)c3)CC2)=C(c2ccc(Cl)cc2)C1 [Example 356, benzyl 4-({[4-({[4-(4-{[2-(4-chlorophenyl)-4,4-dimethylcyclohex-1-en-1-yl]methyl}piperazin-1-yl)-2-(1H-indol-5-yloxy)benzoyl]amino}sulfonyl)-2-nitrophenyl]amino}methyl)piperidine-1-carboxylate] | 5.02 | > 660 | > 500
7 | CC1(C)CCC(CN2CCN(c3ccc(C(=O)NS(=O)(=O)c4ccc(OCC5CCOCC5)c(C(N)=O)c4)c(Oc4ccc5[nH]ccc5c4)c3)CC2)=C(c2ccc(Cl)cc2)C1 [Example 357, N-{[3-(aminocarbonyl)-4-(tetrahydro-2H-pyran-4-ylmethoxy)phenyl]sulfonyl}-4-(4-{[2-(4-chlorophenyl)-4,4-dimethylcyclohex-1-en-1-yl]methyl}piperazin-1-yl)-2-(1H-indol-5-yloxy)benzamide] | 1.34 | > 660 | > 500
8 | O=C(NS(=O)(=O)c1ccc(NC2CCN(C3CCOCC3)CC2)c([N+](=O)[O-])c1)c1ccc(N2CCN(Cc3ccc(C(F)(F)F)cc3-c3ccc(Cl)cc3)CC2)cc1Oc1ccc2[nH]ccc2c1 [Example 358, 4-(4-{[4′-chloro-5-(trifluoromethyl)-1,1′-biphenyl-2-yl]methyl}piperazin-1-yl)-2-(1H-indol-5-yloxy)-N-({3-nitro-4-[(1-tetrahydro-2H-pyran-4-ylpiperidin-4-yl)amino]phenyl}sulfonyl)benzamide] | 5.42 | > 660 | > 500
9 | CC(C)(C)c1ccc(CN2CCN(c3ccc(C(=O)NS(=O)(=O)c4ccc(NC5CCN(C6CCOCC6)CC5)c([N+](=O)[O-])c4)c(Oc4ccc5[nH]ccc5c4)c3)CC2)c(-c2ccc(Cl)cc2)c1 [Example 359, 4-{4-[(5-tert-butyl-4′-chloro-1,1′-biphenyl-2-yl)methyl]piperazin-1-yl}-2-(1H-indol-5-yloxy)-N-({3-nitro-4-[(1-tetrahydro-2H-pyran-4-ylpiperidin-4-yl)amino]phenyl}sulfonyl)benzamide] | 13.5 | > 660 | > 500
10 | Cn1cncc1CNc1ccc(S(=O)(=O)NC(=O)c2ccc(N3CCN(CC4=C(c5ccc(Cl)cc5)CC(C)(C)CC4)CC3)cc2Oc2ccc3[nH]ccc3c2)cc1[N+](=O)[O-] [Example 360, 4-(4-{[2-(4-chlorophenyl)-4,4-dimethylcyclohex-1-en-1-yl]methyl}piperazin-1-yl)-2-(1H-indol-5-yloxy)-N-[(4-{[(1-methyl-1H-imidazol-5-yl)methyl]amino}-3-nitrophenyl)sulfonyl]benzamide] | 0.228 | 144 | 106
11 | CC1(C)CCC(CN2CCN(c3ccc(C(=O)NS(=O)(=O)c4ccc(S(=O)(=O)N5CCOCC5)cc4)c(Oc4ccc5[nH]ccc5c4)c3)CC2)=C(c2ccc(Cl)cc2)C1 [Example 361, 4-(4-{[2-(4-chlorophenyl)-4,4-dimethylcyclohex-1-en-1-yl]methyl}piperazin-1-yl)-2-(1H-indol-5-yloxy)-N-{[4-(morpholin-4-ylsulfonyl)phenyl]sulfonyl}benzamide] | 7.13 | > 660 | > 500
12 | CC1(C)CCC(CN2CCN(c3ccc(C(=O)NS(=O)(=O)c4ccc(NN5CCS(=O)(=O)CC5)c([N+](=O)[O-])c4)c(Oc4ccc5[nH]ccc5c4)c3)CC2)=C(c2ccc(Cl)cc2)C1 [Example 362, 4-(4-{[2-(4-chlorophenyl)-4,4-dimethylcyclohex-1-en-1-yl]methyl}piperazin-1-yl)-N-({4-[(1,1-dioxidothiomorpholin-4-yl)amino]-3-nitrophenyl}sulfonyl)-2-(1H-indol-5-yloxy)benzamide] | 0.082 | 290 | 171
13 | CC1(C)CCC(CN2CCN(c3ccc(C(=O)NS(=O)(=O)c4ccc(NC5CCC(N6CCOCC6)CC5)c([N+](=O)[O-])c4)c(Oc4ccc5[nH]ccc5c4)c3)CC2)=C(c2ccc(Cl)cc2)C1 (stereo not drawn) [Example 363, 4-(4-{[2-(4-chlorophenyl)-4,4-dimethylcyclohex-1-en-1-yl]methyl}piperazin-1-yl)-2-(1H-indol-5-yloxy)-N-({4-[(4-morpholin-4-ylcyclohexyl)amino]-3-nitrophenyl}sulfonyl)benzamide] | 0.18 | > 660 | 86.9
14 | CC1(C)CCC(CN2CCN(c3ccc(C(=O)NS(=O)(=O)c4cnc(OCC5CCOCC5)c(Br)c4)c(Oc4cccc5[nH]ccc45)c3)CC2)=C(c2ccc(Cl)cc2)C1 [Example 364, N-{[5-bromo-6-(tetrahydro-2H-pyran-4-ylmethoxy)pyridin-3-yl]sulfonyl}-4-(4-{[2-(4-chlorophenyl)-4,4-dimethylcyclohex-1-en-1-yl]methyl}piperazin-1-yl)-2-(1H-indol-4-yloxy)benzamide] | 0.006 | 76 | 185
15 | CC1(C)CCC(CN2CCN(c3ccc(C(=O)NS(=O)(=O)c4cnc(NCC5CCOCC5)c(-c5nccs5)c4)c(Oc4cccc5[nH]ccc45)c3)CC2)=C(c2ccc(Cl)cc2)C1 [Example 365, 4-(4-{[2-(4-chlorophenyl)-4,4-dimethylcyclohex-1-en-1-yl]methyl}piperazin-1-yl)-2-(1H-indol-4-yloxy)-N-{[6-[(tetrahydro-2H-pyran-4-ylmethyl)amino]-5-(1,3-thiazol-2-yl)pyridin-3-yl]sulfonyl}benzamide] | 1.08 | > 660 | > 500
16 | CC1(C)CCC(CN2CCN(c3ccc(C(=O)NS(=O)(=O)c4ccc(NCC5CCOCC5)c(C#N)c4)c(Oc4cccc5[nH]ccc45)c3)CC2)=C(c2ccc(Cl)cc2)C1 [Example 366, 4-(4-{[2-(4-chlorophenyl)-4,4-dimethylcyclohex-1-en-1-yl]methyl}piperazin-1-yl)-N-({3-cyano-4-[(tetrahydro-2H-pyran-4-ylmethyl)amino]phenyl}sulfonyl)-2-(1H-indol-4-yloxy)benzamide] | 5.46 | > 660 | > 500
17 | CC1(C)CCC(CN2CCN(c3ccc(C(=O)NS(=O)(=O)c4ccc(NCC5CCOCC5)c(C#N)c4)c(Oc4ccc5[nH]ccc5c4)c3)CC2)=C(c2ccc(Cl)cc2)C1 [Example 367, 4-(4-{[2-(4-chlorophenyl)-4,4-dimethylcyclohex-1-en-1-yl]methyl}piperazin-1-yl)-N-({3-cyano-4-[(tetrahydro-2H-pyran-4-ylmethyl)amino]phenyl}sulfonyl)-2-(1H-indol-5-yloxy)benzamide] | 4.61 | > 660 | > 500
